Source: patent US9896440B2, “Aryl substituted heterocyclyl sulfones” (GRÜNENTHAL GMBH, priority 2014, dated 2018)

molecular target: T1, Human CaV2.2 channels (Homo sapiens, UniProt Q00975); assay: Fluorescence assay for CaV2.2 channels using potassium depolarization to induce channel opening (FLIPR, Fluo 4); format: cell-based; conditions: 3 μM test compound, 30 mM KCl assay buffer (inactivated channel state), HEK293 cells
T1 construct: expressed in transfected cells; Kir2.3 also stably co-expressed
Method in brief: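 HEK293 cells stably co-expressing human CaV2.2 with α2δ and β subunits plus Kir2.3, Fluo-4 loaded; compounds preincubated 15 min at 25 °C in 1 mM or 30 mM KCl buffer (inactivated state), pH 7.4. Depolarized by KCl addition; baseline-normalized peak fluorescence (ex 480/em 535 nm) gave inhibition.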

T1 sequence (Q00975 whole entry): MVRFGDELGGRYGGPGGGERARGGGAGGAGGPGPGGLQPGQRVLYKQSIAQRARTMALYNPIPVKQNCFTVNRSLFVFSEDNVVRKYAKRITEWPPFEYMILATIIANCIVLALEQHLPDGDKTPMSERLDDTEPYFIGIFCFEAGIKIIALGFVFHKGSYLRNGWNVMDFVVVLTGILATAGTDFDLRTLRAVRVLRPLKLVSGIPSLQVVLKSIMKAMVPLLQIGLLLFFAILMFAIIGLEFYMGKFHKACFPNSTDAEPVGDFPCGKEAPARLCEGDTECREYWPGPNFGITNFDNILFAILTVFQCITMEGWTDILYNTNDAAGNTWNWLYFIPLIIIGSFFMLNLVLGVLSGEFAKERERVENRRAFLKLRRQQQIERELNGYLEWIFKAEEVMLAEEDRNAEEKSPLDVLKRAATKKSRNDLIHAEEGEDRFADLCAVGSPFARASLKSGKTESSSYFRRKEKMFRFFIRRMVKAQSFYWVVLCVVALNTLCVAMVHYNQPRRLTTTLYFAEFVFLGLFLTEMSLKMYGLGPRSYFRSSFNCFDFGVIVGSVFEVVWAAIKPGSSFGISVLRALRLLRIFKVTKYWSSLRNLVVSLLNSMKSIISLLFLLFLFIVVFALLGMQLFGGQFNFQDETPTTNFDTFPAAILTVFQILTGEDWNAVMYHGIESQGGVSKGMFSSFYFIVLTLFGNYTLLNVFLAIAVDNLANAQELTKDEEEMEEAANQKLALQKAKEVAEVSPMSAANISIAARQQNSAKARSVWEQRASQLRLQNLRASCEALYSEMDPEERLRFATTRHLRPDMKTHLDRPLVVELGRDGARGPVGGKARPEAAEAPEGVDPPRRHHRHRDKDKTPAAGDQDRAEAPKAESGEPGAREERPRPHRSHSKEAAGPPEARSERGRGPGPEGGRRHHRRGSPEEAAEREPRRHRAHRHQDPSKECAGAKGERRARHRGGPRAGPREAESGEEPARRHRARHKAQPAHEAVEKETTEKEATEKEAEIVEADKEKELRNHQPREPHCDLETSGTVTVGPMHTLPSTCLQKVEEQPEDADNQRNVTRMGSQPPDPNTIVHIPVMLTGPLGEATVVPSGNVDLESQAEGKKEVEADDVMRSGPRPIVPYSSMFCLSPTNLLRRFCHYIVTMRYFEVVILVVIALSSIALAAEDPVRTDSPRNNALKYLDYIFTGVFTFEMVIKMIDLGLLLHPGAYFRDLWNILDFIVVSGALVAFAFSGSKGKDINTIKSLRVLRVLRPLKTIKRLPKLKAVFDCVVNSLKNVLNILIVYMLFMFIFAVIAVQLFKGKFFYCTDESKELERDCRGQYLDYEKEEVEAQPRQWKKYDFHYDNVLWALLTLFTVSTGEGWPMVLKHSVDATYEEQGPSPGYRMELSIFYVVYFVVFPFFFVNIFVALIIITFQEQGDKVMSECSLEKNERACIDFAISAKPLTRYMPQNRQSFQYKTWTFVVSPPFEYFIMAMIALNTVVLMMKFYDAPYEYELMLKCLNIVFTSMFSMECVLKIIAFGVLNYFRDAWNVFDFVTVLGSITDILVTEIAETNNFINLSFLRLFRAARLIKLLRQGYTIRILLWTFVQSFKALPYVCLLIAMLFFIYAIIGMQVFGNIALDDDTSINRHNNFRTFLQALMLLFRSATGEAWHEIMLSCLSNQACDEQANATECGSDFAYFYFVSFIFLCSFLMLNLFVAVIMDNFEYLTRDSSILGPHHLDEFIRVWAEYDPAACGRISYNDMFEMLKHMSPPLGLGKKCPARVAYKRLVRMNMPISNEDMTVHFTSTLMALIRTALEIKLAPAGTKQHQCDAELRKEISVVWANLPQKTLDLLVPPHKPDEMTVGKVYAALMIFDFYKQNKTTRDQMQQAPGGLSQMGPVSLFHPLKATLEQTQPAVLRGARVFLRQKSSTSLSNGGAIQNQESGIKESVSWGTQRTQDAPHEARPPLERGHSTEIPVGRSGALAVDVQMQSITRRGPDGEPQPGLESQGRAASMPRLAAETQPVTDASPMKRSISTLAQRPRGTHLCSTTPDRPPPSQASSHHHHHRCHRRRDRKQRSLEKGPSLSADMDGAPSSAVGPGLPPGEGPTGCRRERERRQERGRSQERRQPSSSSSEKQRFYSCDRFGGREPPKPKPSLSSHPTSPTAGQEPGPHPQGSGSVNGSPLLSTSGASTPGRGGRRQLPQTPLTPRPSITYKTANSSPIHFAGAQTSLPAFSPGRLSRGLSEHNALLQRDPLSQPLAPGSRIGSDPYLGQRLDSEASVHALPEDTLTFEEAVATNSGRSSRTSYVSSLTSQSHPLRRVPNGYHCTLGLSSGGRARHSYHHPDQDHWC

Row | Structure (SMILES) | Activity Category: %-Inhib (CaV2.2) @3 μM @30 mM KCl
1 | CC1(S(=O)(=O)c2cccc(C(F)(F)F)c2)CCOC(c2ccc(C#N)cc2S(C)(=O)=O)C1 (stereo not shown) [SC-252, 3-Methylsulfonyl-4-[4-methyl-4-[[3-(trifluoromethyl)phenyl]sulfonyl]-tetrahydro-pyran-2-yl]-benzonitrile] | B (%-Inhibition >75% up to ≦95%)
2 | Cc1cc(S(C)(=O)=O)ccc1C1CC(C)(S(=O)(=O)c2cccc(C(F)(F)F)c2)CCO1 (stereo not shown) [SC-254, 4-Methyl-2-(2-methyl-4-methylsulfonyl-phenyl)-4-[[3-(trifluoromethyl)phenyl]sulfonyl]-tetrahydro-pyran] | A (%-Inhibition >95%)
3 | CC1(S(=O)(=O)c2cccc(C(F)(F)F)c2)CCOC(c2ccc(C#N)c(S(C)(=O)=O)c2)C1 (stereo not shown) [SC-262, 2-Methylsulfonyl-4-[4-methyl-4-[[3-(trifluoromethyl)phenyl]sulfonyl]-tetrahydro-pyran-2-yl]-benzonitrile] | B (%-Inhibition >75% up to ≦95%)
4 | CC1(S(=O)(=O)c2cccc(OC(F)(F)F)c2)CCOC(c2ccc(S(C)(=O)=O)c(F)c2)C1 (stereo not shown) [SC-266, 2-(3-Fluoro-4-methylsulfonyl-phenyl)-4-methyl-4-[[3-(trifluoromethyloxy)-phenyl]sulfonyl]-tetrahydro-pyran] | A (%-Inhibition >95%)
5 | CC1(S(=O)(=O)c2cccc(C(F)(F)F)c2)CCOC(c2ccc(S(C)(=O)=O)c(C#N)c2)C1 (stereo not shown) [SC-268, 2-Methylsulfonyl-5-[4-methyl-4-[[3-(trifluoromethyl)phenyl]sulfonyl]-tetrahydro-pyran-2-yl]-benzonitrile] | B (%-Inhibition >75% up to ≦95%)
6 | CC1(S(=O)(=O)c2cccc(C(F)F)c2)CCOC(c2ccc(S(C)(=O)=O)c(F)c2)C1 (stereo not shown) [SC-269, 4-[[3-(Difluoro-methyl)-phenyl]sulfonyl]-2-(3-fluoro-4-methylsulfonyl-phenyl)-4-methyl-tetrahydro-pyran] | C (%-Inhibition >40% up to ≦75%)
7 | CC1(S(=O)(=O)c2cccc(C(F)F)c2)CCOC(c2ccc(S(C)(=O)=O)c(F)c2)C1 (stereo not shown) [SC-270, 4-[[3-(Difluoro-methyl)-phenyl]sulfonyl]-2-(3-fluoro-4-methylsulfonyl-phenyl)-4-methyl-tetrahydro-pyran] | B (%-Inhibition >75% up to ≦95%)
8 | CC1(S(=O)(=O)c2cccc(C(F)(F)F)c2)CCOC(c2ccc(S(C)(=O)=O)cc2C#N)C1 (stereo not shown) [SC-276, 5-Methylsulfonyl-2-[4-methyl-4-[[3-(trifluoromethyl)phenyl]sulfonyl]-tetrahydro-pyran-2-yl]-benzonitrile] | A (%-Inhibition >95%)
9 | CC1(S(=O)(=O)c2cccc(C(F)(F)F)c2)CCOC(c2cc(S(C)(=O)=O)ccc2C2CC2)C1 (stereo not shown) [SC-278, 2-(2-Cyclopropyl-5-methylsulfonyl-phenyl)-4-methyl-4-[[3-(trifluoromethyl)phenyl]sulfonyl]-tetrahydro-pyran] | B (%-Inhibition >75% up to ≦95%)
10 | Cc1nc2cc(C3CC(C)(S(=O)(=O)c4cccc(C(F)(F)F)c4)CCO3)ccc2o1 (stereo not shown) [SC-280, 2-Methyl-5-[4-methyl-4-[[3-(trifluoromethyl)phenyl]sulfonyl]-tetrahydro-pyran-2-yl]-benzooxazole] | A (%-Inhibition >95%)
11 | C[S+]([O-])c1ccc(C2CC(C)(S(=O)(=O)c3cccc(C(F)(F)F)c3)CCO2)c(F)c1 (stereo not shown) [SC-281, 2-[2-Fluoro-4-(methylsulfinyl)-phenyl]-4-methyl-4-[[3-(trifluoromethyl)phenyl]sulfonyl]-tetrahydro-pyran] | B (%-Inhibition >75% up to ≦95%)
12 | C[S+]([O-])c1ccc(C2CC(C)(S(=O)(=O)c3cccc(C(F)(F)F)c3)CCO2)c(F)c1 (stereo not shown) [SC-282, 2-[2-Fluoro-4-(methylsulfinyl)-phenyl]-4-methyl-4-[[3-(trifluoromethyl)phenyl]sulfonyl]-tetrahydro-pyran] | B (%-Inhibition >75% up to ≦95%)
13 | C[S+]([O-])c1ccc(C2CC(C)(S(=O)(=O)c3cccc(C(F)(F)F)c3)CCO2)c(F)c1 (stereo not shown) [SC-283, 2-[2-Fluoro-4-(methylsulfinyl)-phenyl]-4-methyl-4-[[3-(trifluoromethyl)phenyl]sulfonyl]-tetrahydro-pyran] | B (%-Inhibition >75% up to ≦95%)
14 | C[S+]([O-])c1ccc(C2CC(C)(S(=O)(=O)c3cccc(C(F)(F)F)c3)CCO2)c(F)c1 (stereo not shown) [SC-284, 2-[2-Fluoro-4-(methylsulfinyl)-phenyl]-4-methyl-4-[[3-(trifluoromethyl)phenyl]sulfonyl]-tetrahydro-pyran] | C (%-Inhibition >40% up to ≦75%)
15 | C[S+]([O-])c1cc(Cl)ccc1C1CC(C)(S(=O)(=O)c2cccc(C(F)(F)F)c2)CCO1 (stereo not shown) [SC-288, 2-[4-Chloro-2-(methylsulfinyl)-phenyl]-4-methyl-4-[[3-(trifluoromethyl)phenyl]sulfonyl]-tetrahydro-pyran] | B (%-Inhibition >75% up to ≦95%)

same assay, conditions: HEK293, 3 μM test compound, 30 mM KCl assay buffer (inactivated channel state), HEK293 cells; read-out: Activity Category: %-Inhib (CaV2.2) @3 μM @30 mM KCl

Row | Structure (SMILES) | inhibition at 3 µM [%]
16 | CC1(S(=O)(=O)c2cccc(C(F)(F)F)c2)CCOC(c2ccc(C#N)cc2S(C)(=O)=O)C1 (stereo not shown) [SC-251, 3-Methylsulfonyl-4-[4-methyl-4-[[3-(trifluoromethyl)phenyl]sulfonyl]-tetrahydro-pyran-2-yl]-benzonitrile] | > 95
17 | Cc1cc(S(C)(=O)=O)ccc1C1CC(C)(S(=O)(=O)c2cccc(C(F)(F)F)c2)CCO1 (stereo not shown) [SC-253, 4-Methyl-2-(2-methyl-4-methylsulfonyl-phenyl)-4-[[3-(trifluoromethyl)phenyl]sulfonyl]-tetrahydro-pyran] | 75 to 95
18 | CC1(S(=O)(=O)c2cccc(C(F)(F)F)c2)CCOC(c2ccc(S(C)(=O)=O)cc2C(F)(F)F)C1 (stereo not shown) [SC-255, 4-Methyl-2-[4-methylsulfonyl-2-(trifluoromethyl)-phenyl]-4-[[3-(trifluoromethyl)phenyl]sulfonyl]-tetrahydro-pyran] | > 95
19 | CC1(S(=O)(=O)c2cccc(C(F)(F)F)c2)CCOC(c2cc(C#N)cc(S(C)(=O)=O)c2)C1 (stereo not shown) [SC-257, 3-Methylsulfonyl-5-[4-methyl-4-[[3-(trifluoromethyl)phenyl]sulfonyl]-tetrahydro-pyran-2-yl]-benzonitrile] | 75 to 95
20 | CC1(S(=O)(=O)c2cccc(C(F)(F)F)c2)CCOC(c2ccc3c(c2)OC(F)(F)O3)C1 (stereo not shown) [SC-259, 2,2-Difluoro-5-[4-methyl-4-[[3-(trifluoromethyl)phenyl]sulfonyl]-tetrahydro-pyran-2-yl]-1,3-benzodioxole] | > 95
21 | CC1(S(=O)(=O)c2cccc(C(F)(F)F)c2)CCOC(c2ccc(C#N)c(S(C)(=O)=O)c2)C1 (stereo not shown) [SC-261, 2-Methylsulfonyl-4-[4-methyl-4-[[3-(trifluoromethyl)phenyl]sulfonyl]-tetrahydro-pyran-2-yl]-benzonitrile] | > 95
22 | CC1(S(=O)(=O)c2cccc(C(F)(F)F)c2)CCOC(c2ccc3c(c2)CCO3)C1 (stereo not shown) [SC-263, 5-[4-Methyl-4-[[3-(trifluoromethyl)phenyl]sulfonyl]-tetrahydro-pyran-2-yl]-2,3-dihydro-benzofuran] | > 95
23 | CC1(S(=O)(=O)c2cccc(OC(F)(F)F)c2)CCOC(c2ccc(S(C)(=O)=O)c(F)c2)C1 (stereo not shown) [SC-265, 2-(3-Fluoro-4-methylsulfonyl-phenyl)-4-methyl-4-[[3-(trifluoromethyloxy)-phenyl]sulfonyl]-tetrahydro-pyran] | 75 to 95
24 | CC1(S(=O)(=O)c2cccc(C(F)(F)F)c2)CCOC(c2ccc(S(C)(=O)=O)c(C#N)c2)C1 (stereo not shown) [SC-267, 2-Methylsulfonyl-5-[4-methyl-4-[[3-(trifluoromethyl)phenyl]sulfonyl]-tetrahydro-pyran-2-yl]-benzonitrile] | > 95
25 | CC(C)c1cccc(S(=O)(=O)C2(C)CCOC(c3ccc(S(C)(=O)=O)c(F)c3)C2)c1 (stereo not shown) [SC-271, 2-(3-Fluoro-4-methylsulfonyl-phenyl)-4-[(3-isopropyl-phenyl)sulfonyl]-4-methyl-tetrahydro-pyran] | > 95
26 | CC1(S(=O)(=O)c2cccc(C(F)(F)F)c2)CCOC(c2cc(S(C)(=O)=O)ccc2C#N)C1 (stereo not shown) [SC-273, 4-Methylsulfonyl-2-[4-methyl-4-[[3-(trifluoromethyl)phenyl]sulfonyl]-tetrahydro-pyran-2-yl]-benzonitrile] | 75 to 95
27 | CC1(S(=O)(=O)c2cccc(C(F)(F)F)c2)CCOC(c2ccc(S(C)(=O)=O)cc2C#N)C1 (stereo not shown) [SC-275, 5-Methylsulfonyl-2-[4-methyl-4-[[3-(trifluoromethyl)phenyl]sulfonyl]-tetrahydro-pyran-2-yl]-benzonitrile] | 75 to 95
28 | CC1(S(=O)(=O)c2cccc(C(F)(F)F)c2)CCOC(c2cc(S(C)(=O)=O)ccc2C2CC2)C1 (stereo not shown) [SC-277, 2-(2-Cyclopropyl-5-methylsulfonyl-phenyl)-4-methyl-4-[[3-(trifluoromethyl)phenyl]sulfonyl]-tetrahydro-pyran] | > 95
29 | Cc1nc2cc(C3CC(C)(S(=O)(=O)c4cccc(C(F)(F)F)c4)CCO3)ccc2o1 (stereo not shown) [SC-279, 2-Methyl-5-[4-methyl-4-[[3-(trifluoromethyl)phenyl]sulfonyl]-tetrahydro-pyran-2-yl]-benzooxazole] | 75 to 95
30 | CCc1nc2cc(C3CC(C)(S(=O)(=O)c4cccc(C(F)(F)F)c4)CCO3)ccc2o1 (stereo not shown) [SC-285, 2-Ethyl-5-[4-methyl-4-[[3-(trifluoromethyl)phenyl]sulfonyl]-tetrahydro-pyran-2-yl]-benzooxazole] | 75 to 95
31 | CC1(S(=O)(=O)c2cccc(C(F)(F)F)c2)CCOC(c2ccc(S(=O)(=O)CCO)cc2)C1 (stereo not shown) [SC-286, 2-[[4-[4-Methyl-4-[[3-(trifluoromethyl)phenyl]sulfonyl]-tetrahydro-pyran-2-yl]-phenyl]sulfonyl]-ethanol] | 75 to 95
